A short description of this data set: solvent given as SMILES.

On to `c1ccc2c(-c3ccc4sc5ccccc5c4c3)c3ccccc3cc2c1`, for which the fluorescence lifetime is, setting by setting: (in C1CCCCC1) 4.1 ns; (in CC#N) 4.5 ns; (in ClCCl) 5 ns.
Where the note is “in ClC(Cl)Cl”, `Cc1ccc(C2=Cc3c4ccccc4cc[n+]3[B-](F)(F)O2)cc1` yielded a fluorescence lifetime of 0.377 ns.
`CC(C)(C)c1ccc2c(c1)sc1[n+]2[B-](F)(F)n2c(c3cccc4c(Br)ccc2c43)=N1` had a fluorescence lifetime (in ClCCl) of 5 ns.
For `O=C([O-])c1ccccc1-c1c2cc(I)c(=O)c(I)c-2oc2c(I)c([O-])c(I)cc12`, the fluorescence lifetime is 0.66 ns (in CC(C)O), 0.565 ns (in CCO), 0.5 ns (in CO) and 0.115 ns (in O).
`Cc1ccc2c(nc3c(=O)n(C)c(=O)nc-3n2C)c1C` registered a fluorescence lifetime (in CC#N) of 3.9 ns.
In turn, `c1ccc(-c2nnc(-c3ccc(N4c5ccccc5N(c5ccccc5)c5ccccc54)cc3)o2)cc1` registered a fluorescence lifetime (in Cc1ccccc1) of 9 ns and a fluorescence lifetime (in c1cc(-n2c3ccccc3c3ccccc32)cc(-n2c3ccccc3c3ccccc32)c1) of 7 ns.
With `CN(C)c1ccc(C2=Cc3cccc[n+]3[B-](F)(F)O2)cc1`, for the setting “in ClC(Cl)Cl”, the fluorescence lifetime worked out at 2.68 ns.
`Cn1c(=O)c(/N=N/c2cc(S(=O)(=O)O)ccc2C(=O)O)c(O)c2ccccc21` returned a fluorescence lifetime (in CS(C)=O) of 0.06 ns.
Turning to `CN(C)c1ccc(-c2cc(-c3ccc(C#N)cc3)nc(-c3ccccc3)n2)cc1`, the fluorescence lifetime (in ClC(Cl)Cl) was 3.5 ns.
Turning to `Cc1c(C)c(B(c2c(C)c(C)c(N3c4ccccc4Oc4ccccc43)c(C)c2C)c2c(C)c(C)c(N3c4ccccc4Oc4ccccc43)c(C)c2C)c(C)c(C)c1C#N`, the fluorescence lifetime (in c1ccc([Si](c2ccccc2)(c2ccc(-n3c4ccccc4c4ccccc43)cc2)c2ccc(-n3c4ccccc4c4ccccc43)cc2)cc1) was found to be 18 ns.
Turning to `FC(F)(F)c1ccc(C2=CC3=c4cc(-c5ccc(C(F)(F)F)cc5)c5nc(C(F)(F)C(F)(F)C(F)(F)F)nc6c(-c7ccc(C(F)(F)F)cc7)cc(c4c65)C4=CC(c5ccc(C(F)(F)F)cc5)=C5N=C(C(F)(F)C(F)(F)C(F)(F)F)N=C2C5C43)cc1` (stereo not given), the fluorescence lifetime (in C1CCOC1) amounted to 2.8 ns.
Same read-out and setting: then `c1ccc(/C(=C(\c2ccccc2)c2cc(-c3ccccc3)ccc2-c2ccccc2)c2cc(-c3ccccc3)ccc2-c2ccccc2)cc1`, with 6.5 ns.
Consider `CC(C)c1ccc(/C=C/c2nc3ccc(N(C)C)cc3s2)cc1`, for which the fluorescence lifetime is, setting by setting: (in C1CCCCC1) 2.04 ns; (in CC#N) 3.27 ns.
On to `CCCCCCN(CCCCCC)c1ccc(C#Cc2ccc(C#Cc3ccc(-c4ccc(C#Cc5ccc(C#Cc6ccc(N(CCCCCC)CCCCCC)cc6)cc5)cc4)cc3)cc2)cc1`, for which the fluorescence lifetime (in Cc1ccccc1) is 0.8 ns.
Regarding `COc1cc(N2CCOCCOCCN(c3cc(OC)c(NC(=O)c4ccc(-c5c6cc(Cl)c(=O)cc-6oc6cc([O-])c(Cl)cc56)c(C(=O)[O-])c4)cc3OC)CCOCC2)c(OC)cc1NC(=O)c1ccc(-c2c3cc(Cl)c(=O)cc-3oc3cc([O-])c(Cl)cc23)c(C(=O)[O-])c1`, where the note is “in O”, the fluorescence lifetime worked out at 1.13 ns.
With `COc1ccc(C2=Cc3ccc4ccccc4[n+]3[B-](F)(F)O2)cc1`, the fluorescence lifetime (in ClC(Cl)Cl) amounted to 2.3 ns.
Turning to `CCC1(CC)c2cc(Br)ccc2-c2c1c1c(c3c2C(CC)(CC)c2cc(-c4cccs4)ccc2-3)C(CC)(CC)c2cc(Br)ccc2-1`, the fluorescence lifetime (in C1CCOC1) turned out to be 0.92 ns.
For the setting “in C1COCCO1”, `CCC12C(=C3C(=C4c5ccc(-c6ccc(C(C)=O)cc6)cc5S(=O)(=O)C41CC)C(F)(F)C(F)(F)C3(F)F)c1ccc(-c3ccc(C(C)=O)cc3)cc1S2(=O)=O` (stereo not given) had a fluorescence lifetime of 2.8 ns.
Consider `O=P1(c2ccccc2)C(c2ccc(N(c3ccccc3)c3ccccc3)cc2)=Cc2cc3ccccc3cc21` (stereo not given), for which, for the setting “in ClCCl”, the fluorescence lifetime was 4.7 ns.
On the same count and under the same terms, then `O=S1(=O)c2ccccc2C2(c3cc(-c4ccc(N(c5ccccc5)c5ccccc5)cc4)ccc3-c3ccc(-c4ccc(N(c5ccccc5)c5ccccc5)cc4)cc32)c2ccccc21`, with 1.5 ns.
`CN(C)c1ccc(/C=C/C=C2\CC/C(=C\C=C\c3ccc(N(C)C)cc3)C2=O)cc1`: the fluorescence lifetime by setting is: (in C1CCCCC1) 0.48 ns; (in CC#N) 0.49 ns; (in CC(C)=O) 0.8 ns; (in CC(C)O) 0.56 ns; (in CCCCCC) 0.86 ns; (in CCCCO) 0.37 ns. For the same compound, the fluorescence lifetime is, setting by setting: (in CCCO) 0.19 ns; (in CCO) 0.24 ns; (in CCOC(C)=O) 0.69 ns; (in CCOCC) 0.76 ns; (in CN(C)C=O) 0.67 ns; (in CO) 0.21 ns. The fluorescence lifetime is 0.58 ns (in CS(C)=O); 0.86 ns (in Cc1ccccc1); 0.76 ns (in ClC(Cl)(Cl)Cl); 1.08 ns (in ClCCl); 0.14 ns (in OCC(F)(F)F); 0.83 ns (in S=C=S). Besides, the fluorescence lifetime was 0.81 ns (in c1ccccc1) and 1.17 ns (in c1ccncc1).
For the compound `CCCCCCCCC1(CCCCCCCC)c2cc(-c3ccc(C(=O)OC)cc3)ccc2-c2ccc(-c3ccc(C(=O)OC)cc3)cc21`, the fluorescence lifetime (in CN(C)C=O) is 1.48 ns.
Under “in ClCCl”, `CCCCCCCCCCCCNc1cccc2[n+]1[B-](F)(F)n1c(c3cccc4cccc1c43)=N2` yielded a fluorescence lifetime of 2.5 ns.
Compound `COc1ccc(OC)cc1` yielded a fluorescence lifetime (in C1CCCCC1) of 3.8 ns.
Take `c1cc2ccc3cccc4c(-c5cc(-c6nccs6)nc(-c6nccs6)c5)cc(c1)c2c34`: the fluorescence lifetime by setting is: (in CC#N) 2.9 ns; (in CCCCCC) 3.24 ns; (in CO) 3.2 ns; (in ClC(Cl)Cl) 2.41 ns.
`COc1ccc(-c2c3cc4ccccc4cc3c(-c3ccc(OC)cc3)c3cc4ccccc4cc23)cc1` had a fluorescence lifetime (in ClCCl) of 7.8 ns.
Turning to `c1csc(-c2ccc(-c3cccs3)c3nsnc23)c1`, the fluorescence lifetime (in ClC(Cl)Cl) stood at 10.2 ns.
Turning to `COc1ccc2c(c1)C(=O)c1ccccc1-2`, the fluorescence lifetime by setting is: (in C1CCCCC1) 9.9 ns; (in CC#N) 1.8 ns.
`Cn1nc(-c2ccccc2)c2nc3cc(Cl)ccc3nc21`: the fluorescence lifetime (in C1CCCCC1) came out at 23.9 ns, the fluorescence lifetime (in C1CCOC1) came out at 20.1 ns and the fluorescence lifetime (in CC#N) came out at 7.74 ns.
With `CC(C)(C)NC(=O)c1ccc(-c2ccc(N3c4ccccc4Oc4ccccc43)cc2)c2ccc3c4ccc(F)cc4c4cc(F)ccc4c3c12`, under “in ClCCl”, the fluorescence lifetime is 89.3 ns.
As for `CCCCC(CC)Cn1c2cc(C#N)ccc2c2cc(-c3ccc(N(c4ccccc4)c4ccccc4)cc3)c(C#N)cc21` (stereo not given), where the note is “in ClCCl”, the fluorescence lifetime came out at 7.59 ns.
With `C=Cc1ccc(OC)c(OC)c1`, the fluorescence lifetime stood at 3.3 ns (in C1CCCCC1) and 3.2 ns (in CC#N).
